Data on two compounds can be found in patent US11083789B2, “IVIG treatments for Bell's palsy” (InnoMed Technologies, Inc., priority 2019, dated 2021).

Structures are written as SMILES.

In assay [1] the test system is Bell's Palsy. The conditions noted are these: prednisolone 60 mg per day for 5 days then reduced by 10 mg per day, and 50 mg per day for 10 days; cited from earlier work.
Assay [2] deals with Bell's Palsy. Nature of the assay: Example 1: treatment of person suffering from Bell's Palsy. The following applies: 60 mg/day prednisone therapy alone, two weeks. The assay is classed as in vivo, human. As for the experimental part: The patient, a person was diagnosed by their doctor after claiming they are suffering from unexplained facial weakness. The patient's doctor diagnosed the patient as suffering from Bell's Palsy. […] Two weeks after administration, the patient is co-administered a single dose of IVIG at 2 g/kg and 60 mg prednisone and Bell's Palsy related symptoms the patient suffered from are reduced by 70% within two weeks from the co-administration.

For assay [3], the system named is Bell's Palsy. The experiment in a line: Example 2: treatment of a person suffering from Bell's Palsy. The assay is classed as in vivo, human. The conditions noted are these: 60 mg/day prednisone therapy alone for a month. As for the experimental part:
The patient, a person is diagnosed by their doctor as suffering from Bell's Palsy. […] The patient is then administered IVIG at 2 g/kg and 60 mg prednisone. Within three weeks, the Bell's Palsy is resolved by about 80%. The patient is then administered a second dose of IVIG at 2 g/kg and 60 mg. prednisone. Within two weeks, the patient is resolved by about 95%.

`C[C@]12C=CC(=O)C=C1CC[C@@H]1[C@@H]2[C@@H](O)C[C@@]2(C)[C@H]1CC[C@]2(O)C(=O)CO` [prednisolone]: in assay [1], the “outcome in patients with Bell's palsy” value was “improves outcome” and the “time to complete recovery” value is recorded as “shortens the time to complete recovery”.
Turning to `C[C@]12C=CC(=O)C=C1CC[C@@H]1[C@@H]2C(=O)C[C@@]2(C)[C@H]1CC[C@]2(O)C(=O)CO` [prednisone], the “reduction in the symptoms of Bell's Palsy” value in assay [2] is recorded as “no reduction”. For the same compound, the “resolution of Bell's Palsy” value in assay [3] was “did not resolve”.
